Test results: paper PMC5983544, “Muscarinic M5 receptors modulate ethanol seeking in rats” (Neuropsychopharmacology, 2018)

What was measured:
rat M5 mAChR [1] = target: T1, rat M5 mAChR (Rattus norvegicus, UniProt P08911); assay: [3H]NMS equilibrium binding in whole CHO-rM5 cells (interaction with ACh); conditions: whole-cell [3H]NMS binding, read-out: binding affinity pKB (converted)
T1 sequence (P08911 1-531): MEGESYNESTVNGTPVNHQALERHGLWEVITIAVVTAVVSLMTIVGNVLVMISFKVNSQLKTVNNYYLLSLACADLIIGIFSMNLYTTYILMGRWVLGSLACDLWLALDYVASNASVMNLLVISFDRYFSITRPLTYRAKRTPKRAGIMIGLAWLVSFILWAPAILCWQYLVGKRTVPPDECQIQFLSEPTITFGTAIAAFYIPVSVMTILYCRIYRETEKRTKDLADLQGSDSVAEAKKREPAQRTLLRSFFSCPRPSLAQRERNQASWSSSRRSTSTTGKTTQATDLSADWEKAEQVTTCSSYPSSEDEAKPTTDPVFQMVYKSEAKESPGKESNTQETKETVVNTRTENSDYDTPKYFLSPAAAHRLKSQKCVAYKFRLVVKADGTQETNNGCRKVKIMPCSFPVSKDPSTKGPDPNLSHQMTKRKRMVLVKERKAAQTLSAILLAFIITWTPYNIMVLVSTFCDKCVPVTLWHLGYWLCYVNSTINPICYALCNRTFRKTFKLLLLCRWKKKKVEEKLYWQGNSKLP
Protocol: (§1) Rat mAChR subtypes (rM1–rM5; Origene) and human cannabinoid 1 receptor (hCB1; ref. [24]) constructs were isogenically integrated into FlpIn CHO cells (Invitrogen) and cells were selected in the presence of […] hygromycin B at 37 °C, 5% CO2, as previously described for the human M1 mAChR [25]. All cells were sub-cultured and seeded as previously described for the CHO-hM5 cells.
(§2) [^3H]NMS equilibrium binding assays in CHO-rM1 to CHO-rM5 cells were performed as previously described for CHO-hM5 cells. For [^35S]GTPγS binding, CHO-rM2 and CHO-rM4 cell membranes were prepared as described in Supplementary information. Membrane [^35S]GTPγS binding was performed as described in ref [26]., except GDP and [^35S]GTPγS concentrations were 1 μM and 0.3 nM, respectively. [^3H](+)-pentazocine binding was performed as described in ref. [27].

rat M2 mAChR [2] = target: T2, rat M2 mAChR (Rattus norvegicus, UniProt P10980); assay: [3H]NMS equilibrium binding in whole CHO-rM2 cells; conditions: rM2, [3H]NMS binding
T2 construct: host or cells: FlpIn CHO cells (Invitrogen)
T2 sequence (P10980 1-466): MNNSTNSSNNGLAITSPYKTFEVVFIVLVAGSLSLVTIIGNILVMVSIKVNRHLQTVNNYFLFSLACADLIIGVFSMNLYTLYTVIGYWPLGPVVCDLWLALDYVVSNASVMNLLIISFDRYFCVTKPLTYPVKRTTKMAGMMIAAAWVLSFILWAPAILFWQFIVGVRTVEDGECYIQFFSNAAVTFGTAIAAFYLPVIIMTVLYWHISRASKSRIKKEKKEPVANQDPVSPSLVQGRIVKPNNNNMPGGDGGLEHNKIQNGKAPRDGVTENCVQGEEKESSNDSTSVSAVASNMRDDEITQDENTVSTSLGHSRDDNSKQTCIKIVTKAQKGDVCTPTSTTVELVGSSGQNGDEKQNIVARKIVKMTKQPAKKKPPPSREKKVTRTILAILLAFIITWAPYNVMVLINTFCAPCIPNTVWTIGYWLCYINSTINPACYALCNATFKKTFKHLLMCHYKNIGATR
Protocol: as §1, §2

rat M4 mAChR [3] = target: T3, rat M4 mAChR (Rattus norvegicus, UniProt P08485); assay: [3H]NMS equilibrium binding in whole CHO-rM4 cells; conditions: rM4, [3H]NMS binding
T3 construct: host or cells: FlpIn CHO cells (Invitrogen)
T3 sequence (P08485 1-478): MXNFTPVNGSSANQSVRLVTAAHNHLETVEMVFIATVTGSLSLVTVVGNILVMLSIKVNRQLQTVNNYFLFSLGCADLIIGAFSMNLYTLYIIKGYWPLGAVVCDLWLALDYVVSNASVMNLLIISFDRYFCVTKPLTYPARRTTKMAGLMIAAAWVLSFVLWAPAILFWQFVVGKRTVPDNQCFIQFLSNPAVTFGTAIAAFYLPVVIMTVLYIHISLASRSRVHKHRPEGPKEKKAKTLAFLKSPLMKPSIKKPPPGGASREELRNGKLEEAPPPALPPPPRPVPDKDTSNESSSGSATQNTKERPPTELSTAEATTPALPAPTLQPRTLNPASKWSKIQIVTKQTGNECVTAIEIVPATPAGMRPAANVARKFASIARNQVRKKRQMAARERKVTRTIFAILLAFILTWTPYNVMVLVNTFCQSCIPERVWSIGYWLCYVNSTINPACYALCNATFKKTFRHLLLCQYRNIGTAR
Protocol: as §1, §2

rat M5 mAChR [4] = target: T1, rat M5 mAChR; assay: ACh-stimulated IP accumulation (IP-One) in CHO-rM5 cells; format: cell-based
Protocol: (§3) The IP-One assay kit (Cisbio) was used for the direct quantitative measurement of inositol phosphate (IP) accumulation in CHO-rM1, CHO-rM3 or CHO-rM5 cells, as described previously. The CHO-hCB1 pERK1/2 assays were performed as described in ref [24].

rat M2 mAChR [5] = target: T2, rat M2 mAChR; assay: ACh-stimulated [35S]GTPγS binding in CHO-rM2 cell membranes; format: biochemical; conditions: rM2, [35S]GTPγS binding
Protocol: as §2

rat M4 mAChR [6] = target: T3, rat M4 mAChR; assay: ACh-stimulated [35S]GTPγS binding in CHO-rM4 cell membranes; format: biochemical; conditions: rM4, [35S]GTPγS binding
Protocol: as §2

σ1 receptor = target: T4, σ1 receptor (Mus musculus, UniProt O55242); assay: [3H](+)-pentazocine binding in mouse brain homogenates; conditions: ML375 at concentrations up to 10 μM
T4 construct: from tissue; host or cells: mouse brain homogenates
Protocol: as §2
(§4) Sigma-1 data are expressed as a percentage of specific [^3H]-(+)-pentazocine binding; ERK1/2 phosphorylation data are expressed percentage of the response to 10% FBS. Data represent the mean ± S.E.M. of 5-7 independent experiments performed in duplicate or triplicate.

[7] = target: T5, human cannabinoid 1 receptor (hCB1) (Homo sapiens, UniProt P21554); assay: CHO-hCB1 ERK1/2 phosphorylation assay; format: cell-based
T5 construct: expressed in transfected cells; host or cells: FlpIn CHO cells (Invitrogen)
Protocol: as §1, §3, §4

[8] = tested on: ethanol-preferring (iP) rats; assay: Operant sucrose self-administration, oral dosing; format: in vivo, rat; conditions: 30 mg/kg p.o. x3
Excerpt: A separate cohort of rats were trained to self-administer sucrose (0.05–1% w/v). Rats underwent an identical dosing regimen of vehicle or ML375 before testing.

hM5 mAChR = conditions: cited from earlier work

T5 sequence (P21554 whole entry): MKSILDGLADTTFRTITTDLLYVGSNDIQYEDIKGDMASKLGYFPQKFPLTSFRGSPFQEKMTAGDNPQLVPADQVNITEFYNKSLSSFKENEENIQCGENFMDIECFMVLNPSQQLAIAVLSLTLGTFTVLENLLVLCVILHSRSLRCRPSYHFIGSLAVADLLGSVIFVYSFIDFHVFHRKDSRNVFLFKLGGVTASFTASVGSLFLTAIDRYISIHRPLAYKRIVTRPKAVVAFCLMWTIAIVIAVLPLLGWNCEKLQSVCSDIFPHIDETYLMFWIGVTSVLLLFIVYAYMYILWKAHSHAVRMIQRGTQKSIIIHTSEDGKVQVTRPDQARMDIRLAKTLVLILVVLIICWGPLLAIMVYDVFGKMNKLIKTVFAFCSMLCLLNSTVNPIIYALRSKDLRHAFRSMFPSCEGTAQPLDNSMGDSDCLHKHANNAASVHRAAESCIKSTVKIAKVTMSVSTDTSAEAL
T4 sequence (O55242 whole entry): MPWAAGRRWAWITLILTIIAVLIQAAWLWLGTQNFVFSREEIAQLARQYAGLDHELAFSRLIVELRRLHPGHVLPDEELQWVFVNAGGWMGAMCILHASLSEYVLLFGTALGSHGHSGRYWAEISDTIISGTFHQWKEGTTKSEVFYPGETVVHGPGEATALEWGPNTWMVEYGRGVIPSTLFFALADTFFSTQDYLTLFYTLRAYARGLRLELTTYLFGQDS

O=C(c1ccc(F)c(F)c1)N1CCN2C(=O)c3ccccc3[C@@]12c1ccc(Cl)cc1 [ML375, (S)-9b-(4-chlorophenyl)-1-(3,4-difluorobenzoyl)-2,3-dihydro-1H-imidazo[2,1-a]isoi ndol-5(9bH)-one]
Kb (rat M5 mAChR [1]): 355 nM
effect on ACh affinity (rat M2 mAChR [2]): no significant effects
effect on ACh affinity (rat M4 mAChR [3]): no significant effects
functional cooperativity between ML375 and ACh (rat M5 mAChR [4]; rM5): high negative cooperativity
Kb (rat M5 mAChR [4]; read-out: functional affinity pKB (converted)): 155 nM
effect on ACh potency (rat M2 mAChR [5]): no significant effects
effect on ACh potency (rat M4 mAChR [6]): no significant effects
effect on [3H](+)-pentazocine binding (σ1 receptor): no apparent effect
effect in ERK1/2 phosphorylation assays ([7]; CHO-hCB1, concentrations up to 10 μM): no apparent effect
agonist activity, ERK1/2 phosphorylation ([7]; FlpIn-CHO hCB1, agonist mode): no agonist activity
inhibition of WIN 55212-2 (1µM)-stimulated ERK 1/2 phosphorylation ([7]; FlpIn-CHO hCB1, antagonist mode): failed to inhibit
sucrose responding vs vehicle ([8]; sucrose 0.05–1% w/v, P = 0.96): did not alter sucrose responding
water responding vs vehicle ([8]; sucrose-trained rats, P = 1.0): no difference
functional affinity pKB (hM5 mAChR): 6.22
